According to ChEMBL document CHEMBL6177962, “Design, synthesis and biological evaluation of 2-arylbenzo[b]furan-4-vinylcarbonyl derivatives based on Salvianolic acid C as antioxidant neuroprotective agents for the treatment of ischemic stroke” (Eur J Med Chem, 2025):

What was measured:
[1] = system: PC-12; assay: Cytotoxicity against rat PC12 cells assessed as cell viability at 10 uM incubated for 24 hrs by CCK-8 assay relative to control; type: functional; conditions: read-out: Activity
[2] = system: PC-12; assay: Cytotoxicity against rat PC12 cells assessed as cell viability at 40 uM incubated for 24 hrs by CCK-8 assay relative to control; type: functional; conditions: read-out: Activity

| SMILES | viability at 10 µM [1] | viability at 40 µM [2] |
| --- | --- | --- |
| COc1ccc(C(=O)/C=C/c2ccc(OC)c3oc(-c4ccc(C)cc4)cc23)cc1F | 50.8% | 98.8% |
| COc1ccc(/C=C/C(=O)c2ccc(N3CCOCC3)cc2)c2cc(-c3ccc(C)cc3)oc12 | 77.9% | 85% |
| COC(=O)[C@@H]1CCC(=O)N1C(=O)/C=C/c1ccc(OC)c2oc(-c3ccc(C)cc3)cc12 | 91% | 95.3% |
| COc1ccc(-c2cc3c(/C=C/C(=O)c4ccc(O)c(OC)c4)ccc(OC)c3o2)cc1 | 77.2% | 116% |
| COc1cc(C(=O)/C=C/c2ccc(OC)c3oc(-c4ccc(C)cc4)cc23)cc(OC)c1OC | 51.6% | 102% |
| COC(=O)[C@H](Cc1c[nH]c2ccccc12)NC(=O)/C=C/c1ccc(OC)c2oc(-c3ccc(OC)cc3)cc12 | 94.4% | 96% |
| COc1ccc(/C=C/C(=O)c2ccc3c(c2)OCO3)c2cc(-c3ccc(C)cc3)oc12 | 58.1% | 95% |
| COC(=O)[C@H](Cc1c[nH]c2ccccc12)NC(=O)/C=C/c1ccc(OC)c2oc(-c3ccc(OC)c(OC)c3)cc12 | 57.1% | 111% |
| COc1cccc(C(=O)/C=C/c2ccc(OC)c3oc(-c4ccc(C)cc4)cc23)c1OC | 67.5% | 78.2% |
| COc1cc(C(=O)/C=C/c2ccc(OC)c3oc(-c4ccc(C)cc4)cc23)ccc1F | 83.8% | 102% |
| COC(=O)CNC(=O)/C=C/c1ccc(OC)c2oc(-c3ccc(C)cc3)cc12 | 68.9% | 93.9% |
| COc1cc(C(=O)/C=C/c2ccc(OC)c3oc(-c4ccc(C)cc4)cc23)cc(OC)c1O | 37.7% | 82% |
| COC(=O)[C@@H](NC(=O)/C=C/c1ccc(OC)c2oc(-c3ccc(C)cc3)cc12)c1ccc(O)cc1 | 69.7% | 92% |
| COC(=O)[C@H](CC1CCCCC1)NC(=O)/C=C/c1ccc(OC)c2oc(-c3ccc(C)cc3)cc12 | 82.1% | 96.1% |
| CCCC[C@H](NC(=O)/C=C/c1ccc(OC)c2oc(-c3ccc(C)cc3)cc12)C(=O)OC | 56% | 93.5% |
| CC[C@H](NC(=O)/C=C/c1ccc(OC)c2oc(-c3ccc(C)cc3)cc12)C(=O)OC | 66.4% | 84% |
| CC(C)(C)OO [TERT-BUTYL HYDROPEROXIDE] | 52.1% |  |
| COC(=O)[C@@H](NC(=O)/C=C/c1ccc(OC)c2oc(-c3ccc(C)cc3)cc12)C(C)C | 73.1% | 94.2% |
| COC(=O)[C@H](Cc1c[nH]c2ccccc12)NC(=O)/C=C/c1ccc(OC)c2oc(-c3ccc(C)cc3)cc12 | 66.1% | 117% |
| COc1cc(OC)cc(-c2cc3c(/C=C/C(=O)c4cc(OC)c(OC)c(OC)c4)ccc(OC)c3o2)c1 | 89.2% | 109% |
| COc1ccc(-c2cc3c(/C=C/C(=O)NCCc4ccc(O)c(O)c4)ccc(OC)c3o2)cc1OC | 70.7% | 104% |
| COc1ccc(C(=O)/C=C/c2ccc(OC)c3oc(-c4ccc(C)cc4)cc23)c(OC)c1OC | 71.9% | 83.9% |
| COc1cc(C(=O)/C=C/c2ccc(OC)c3oc(-c4ccc(C)cc4)cc23)ccc1O | 36.3% | 72.8% |
| COc1ccc(C(=O)/C=C/c2ccc(OC)c3oc(-c4ccc(C)cc4)cc23)cc1O | 14.9% | 69.2% |
| COc1cccc(C(=O)/C=C/c2ccc(OC)c3oc(-c4ccc(C)cc4)cc23)c1 | 55.7% | 119% |
| COc1ccc(C(=O)/C=C/c2ccc(OC)c3oc(-c4ccc(C)cc4)cc23)cc1 | 56.8% | 99.5% |
| COc1cc(OC)cc(C(=O)/C=C/c2ccc(OC)c3oc(-c4ccc(C)cc4)cc23)c1 | 76.1% | 92.2% |
